Drawing on patent publication US5770382A, “Tricyclic retinoids, methods for their production and use” (Ligand Pharmaceuticals, Inc., priority 1995, dated 1998), this text covers EC50 for one molecule.

Common to all, as to format: cell-based
In assay [1] the target is T1, RXRβ (Mus musculus, UniProt P28704).
T1 construct: expressed in transfected cells; host or cells: CV-1 (African green monkey kidney fibroblasts)
T1 sequence (P28704 1-520): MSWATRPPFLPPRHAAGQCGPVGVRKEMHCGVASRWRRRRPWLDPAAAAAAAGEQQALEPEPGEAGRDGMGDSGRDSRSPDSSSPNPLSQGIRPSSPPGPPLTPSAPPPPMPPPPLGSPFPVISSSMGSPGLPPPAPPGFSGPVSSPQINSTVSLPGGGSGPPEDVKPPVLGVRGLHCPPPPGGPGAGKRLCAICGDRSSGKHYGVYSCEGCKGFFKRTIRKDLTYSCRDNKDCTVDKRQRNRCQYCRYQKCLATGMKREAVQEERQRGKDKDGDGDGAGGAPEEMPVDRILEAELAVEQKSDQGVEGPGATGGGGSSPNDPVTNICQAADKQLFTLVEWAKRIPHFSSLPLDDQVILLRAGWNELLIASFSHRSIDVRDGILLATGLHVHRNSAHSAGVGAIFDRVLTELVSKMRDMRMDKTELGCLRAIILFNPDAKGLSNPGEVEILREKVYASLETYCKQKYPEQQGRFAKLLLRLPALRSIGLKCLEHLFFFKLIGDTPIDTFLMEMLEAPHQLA
In words: Co-transfection assay, RXRβ agonist activity. The conditions noted are these: CV-1 cells, 40 hours; read-out: RXRβ Pot (potency, EC50).

The target of assay [2] is T2, RARα (Homo sapiens, UniProt P10276).
T2 construct: expressed in transfected cells; host or cells: CV-1 (African green monkey kidney fibroblasts)
T2 sequence (P10276 1-462): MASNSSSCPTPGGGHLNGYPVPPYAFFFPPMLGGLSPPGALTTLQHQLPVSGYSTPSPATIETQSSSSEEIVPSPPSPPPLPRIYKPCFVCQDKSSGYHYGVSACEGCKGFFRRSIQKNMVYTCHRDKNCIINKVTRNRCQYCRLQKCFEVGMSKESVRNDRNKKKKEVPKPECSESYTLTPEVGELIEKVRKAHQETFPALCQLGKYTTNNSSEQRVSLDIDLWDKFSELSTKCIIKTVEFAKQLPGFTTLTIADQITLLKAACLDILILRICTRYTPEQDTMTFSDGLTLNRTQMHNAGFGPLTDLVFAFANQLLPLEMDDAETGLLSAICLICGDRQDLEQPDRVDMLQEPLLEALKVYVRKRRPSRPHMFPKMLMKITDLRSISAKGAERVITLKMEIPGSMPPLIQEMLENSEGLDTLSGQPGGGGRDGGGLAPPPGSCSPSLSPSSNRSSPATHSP
In words: Co-transfection assay, RARα agonist activity. The note with it: CV-1 cells, 40 hours; read-out: RARα Pot (potency, EC50).

Assay [3] concerns the target T3, RARγ (Homo sapiens, UniProt P13631).
T3 construct: expressed in transfected cells; host or cells: CV-1 (African green monkey kidney fibroblasts)
T3 sequence (P13631 1-454): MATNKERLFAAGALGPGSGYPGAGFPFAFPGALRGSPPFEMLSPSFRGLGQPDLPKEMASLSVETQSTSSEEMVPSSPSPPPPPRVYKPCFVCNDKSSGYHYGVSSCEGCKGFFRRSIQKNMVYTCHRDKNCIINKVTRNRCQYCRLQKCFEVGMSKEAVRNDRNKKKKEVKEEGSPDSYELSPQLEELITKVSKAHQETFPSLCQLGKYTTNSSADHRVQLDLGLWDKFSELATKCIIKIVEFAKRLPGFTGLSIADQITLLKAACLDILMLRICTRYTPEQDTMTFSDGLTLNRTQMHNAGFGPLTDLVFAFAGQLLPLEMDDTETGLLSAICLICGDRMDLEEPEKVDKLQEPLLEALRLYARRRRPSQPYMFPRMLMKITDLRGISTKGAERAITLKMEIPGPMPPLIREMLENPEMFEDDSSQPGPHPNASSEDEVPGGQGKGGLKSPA
In words: Co-transfection assay, RARγ agonist activity. The note with it: CV-1 cells, 40 hours; read-out: RARγ Pot (potency, EC50).

Each structure is given as a SMILES string.

The EC50 is the concentration needed to bring the measured effect to its halfway point. Turning to `CC(/C=C/C=C1/CC(C)(C)Oc2cc3c(cc21)C(C)(C)CCC3(C)C)=C\C(=O)O` [Compound 104b, (2E,4E)-3-Methyl-6-(2,3,6,7,8,9-hexahydro-2,2,6,6,9,9-hexamethylbenzo[b]-chromen-4-ylidene)-hexa-2,4-dienoic acid], the 50% effective concentration (EC50) was 20 nM in assay [1], > 10000 nM in assay [2] and 83 nM in assay [3].
